Measurements from patent US20240033232A1, “New use of (R)-B2-agonists in treatment of sepsis and acute respiratory distress syndrome” (priority 2021, published 2024).

How the values were obtained:
[1] = system: tissue of lung, heart or kidney; experiment: Pathological examination of organs in sepsis; format: in vivo
[2] = system: bronchial hyper-responsiveness induced by LPS sepsis; experiment: Lung function and bronchial hyper-responsiveness in LPS sepsis; format: in vivo; conditions: for bronchial hyper-responsiveness: induced by LPS sepsis
[3] = system: inflammatory cells, such as WBC, neutrophils and monocytes; experiment: Systemic inflammatory cells in sepsis; format: in vivo
[4] = system: NF-κB and MARK pathways; experiment: NF-κB and MARK pathways activated by LPS in sepsis
[5] = system: sepsis and sepsis related ARDS; experiment: Overall effect on sepsis and sepsis related ARDS; conditions: in vivo
[6] = system: inducible NO (iNO) and another ROS; experiment: Inducible NO, ROS and coagulation disorder induced by LPS sepsis
[7] = system: INFs, IL-1B, IL-2,4,6,10,12, TNFa and MCP; experiment: Cytokine storm in sepsis, production and release of cytokines
[8] = system: macrophages from the peritoneal fluid; experiment: LPS induced proliferation and polarization of macrophages from the peritoneal fluid; format: in vivo; conditions: for polarized M1 macrophages or M2 macrophages: in comparison of sepsis condition
[9] = system: sepsis by high doses LPS challenge; experiment: LPS sepsis, mortality of mice; format: in vivo; conditions: for survival: high doses LPS challenge; for mortality: high doses LPS challenge (100% mortality without treatment)
[10] = system: patients with acute respiratory distress Syndrome (ARDS) caused by sepsis; conditions: cited from earlier work

Structure (SMILES)	pathological changes (inflammatory infiltration, edema, lesions, apoptosis) in lung, heart or kidney [1]	bronchial hyper-responsiveness [2]	increase of inflammatory cells (WBC, neutrophils, monocytes) [3]	NF-κB and MARK pathways (expression or phosphorylation) [4]	effect on sepsis and sepsis related ARDS [5]	coagulating system disorder such as disseminated intravascular coagulation (DIC) [6]	over production of inducible NO (iNO) and another ROS [6]	production and release of cytokines [7]	polarized M1 macrophages or M2 macrophages [8]	survival [9]	mortality [9]	further results
CC(C)(C)NC[C@@H](O)c1cc(O)cc(O)c1 [(S)-terbutaline]	further worsened	further worsened	further increased	further enhanced	increase the risk of sepsis or worsen sepsis	–	–	–	–	–	–	–
CC(C)(C)NC[C@H](O)c1ccc(O)c(CO)c1 [(R)-salbutamol]	greatly ameliorated and improved	–	significantly inhibite	–	very effective	prevent	significantly prevent and inhibit	significantly reduced	significant reduction	most of animal survived	greatly reduced	number of macrophages from the peritoneal fluid ([8]; LPS induced): significantly reduced toward normal level
CC(C)(C)NCC(O)c1ccc(O)c(CO)c1 (racemic) [salbutamol]	–	–	–	–	–	–	–	–	–	–	–	ICU mortality and hospital mortality in comparing with placebo [10]: significantly increased; increase of mortality in comparing with placebo ([10]; salbutamol infusion): 11%
CC(C)(C)NC[C@@H](O)c1ccc(O)c(CO)c1 [(S)-salbutamol]	further worsened	–	–	–	increase the risk of sepsis or worsen sepsis	–	–	–	–	–	–	–
OCc1cc([C@H](O)CNCCCCCCOCCCCc2ccccc2)ccc1O [(S)-salmeterol]	–	–	–	–	–	–	–	–	further increased	–	–	–
CC(C)(C)NC[C@H](O)c1cc(O)cc(O)c1 [(R)-terbutaline]	greatly ameliorated and improved	significantly ameliorated	significantly inhibite	significantly inhibited	very effective	prevent	significantly prevent and inhibit	significantly reduced	–	most of animal survived	greatly reduced	arterial oxygenation ([2]; sepsis): maintain a normal arterial oxygenation; deterioration of lung function ([2]; sepsis): prevent or restored the deterioration
